Reference: ChEMBL document CHEMBL4229471, “Antiprotozoal and cysteine proteases inhibitory activity of dipeptidyl enoates” (Bioorg Med Chem, 2018)
The source made the active and inactive calls. The rule behind the calls is not given here.

Columns and labels:
[1] = biological target: T1, Falcipain 2 (Plasmodium falciparum) (UniProt Q9N6S8); test: Inhibition of Plasmodium falciparum falcipain-2 assessed as second-order rate constant using Cbz-Phe-Arg-AMC as substrate measured for 15 mins by spectrofluorimetric method
T1 sequence (whole entry): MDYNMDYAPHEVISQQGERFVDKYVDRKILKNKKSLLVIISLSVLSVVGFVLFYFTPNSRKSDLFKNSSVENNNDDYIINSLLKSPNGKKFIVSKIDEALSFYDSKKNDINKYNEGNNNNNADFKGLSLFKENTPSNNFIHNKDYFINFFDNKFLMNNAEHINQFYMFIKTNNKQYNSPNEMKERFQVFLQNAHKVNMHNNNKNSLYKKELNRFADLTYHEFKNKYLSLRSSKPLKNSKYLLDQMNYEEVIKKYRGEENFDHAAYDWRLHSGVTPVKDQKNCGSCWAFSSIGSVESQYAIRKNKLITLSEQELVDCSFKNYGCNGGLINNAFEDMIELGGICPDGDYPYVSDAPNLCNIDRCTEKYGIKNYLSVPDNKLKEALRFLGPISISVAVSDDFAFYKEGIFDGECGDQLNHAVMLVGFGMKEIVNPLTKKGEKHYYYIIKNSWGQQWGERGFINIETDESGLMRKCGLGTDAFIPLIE

[2] = biological target: T1, Falcipain 2 (Plasmodium falciparum); test: Inhibition of Plasmodium falciparum falcipain-2 at 20 uM using Cbz-Phe-Arg-AMC as substrate measured for 15 mins by spectrofluorimetric method relative to control
[3] = biological target: Rhodesain (Trypanosoma brucei rhodesiense) (UniProt Q95PM0); test: Inhibition of Trypanosoma brucei rhodesiense rhodesain assessed as second-order rate constant using Cbz-Phe-Arg-AMC as substrate measured for 30 mins by fluorescence method
Procathepsin L [4] = biological target: T2, Procathepsin L (Homo sapiens, UniProt P07711); test: Inhibition of human cathepsin L assessed as second order rate constant using Cbz-Phe-Arg-AMC as substrate
Target sequence in this assay (P07711 114-333 limits assumed): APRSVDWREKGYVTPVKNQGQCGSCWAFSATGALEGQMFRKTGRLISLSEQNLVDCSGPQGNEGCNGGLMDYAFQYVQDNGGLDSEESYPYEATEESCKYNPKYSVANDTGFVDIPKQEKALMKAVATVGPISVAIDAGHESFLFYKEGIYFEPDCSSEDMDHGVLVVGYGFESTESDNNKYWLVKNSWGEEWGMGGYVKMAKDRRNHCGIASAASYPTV

[5] = biological target: Cruzipain (Trypanosoma cruzi) (UniProt P25779); test: Inhibition of Trypanosoma cruzi cruzain assessed as second-order rate constant
Cathepsin B [6] = biological target: T3, Cathepsin B (Homo sapiens, UniProt P07858); test: Inhibition of human cathepsin B assessed as second order rate constant using Cbz-Phe-Arg-AMC as substrate
Cathepsin B [7] = biological target: T3, Cathepsin B; test: Inhibition of human cathepsin B at 20 uM using Cbz-Phe-Arg-AMC as substrate relative to control
[8] = biological target: Cruzipain (Trypanosoma cruzi) (UniProt P25779); test: Inhibition of Trypanosoma cruzi cruzain at 20 uM relative to control
Procathepsin L [9] = biological target: T2, Procathepsin L; test: Inhibition of human cathepsin L at 20 uM using Cbz-Phe-Arg-AMC as substrate relative to control
Target sequence in this assay (P07711 114-333 limits assumed): as above

Falcipain 2 = biological target: T4, Falcipain 2 (Plasmodium falciparum, UniProt Q9N6S8); test: Inhibition of Plasmodium falciparum falcipain-2 using Cbz-Phe-Arg-AMC as substrate measured for 15 mins by spectrofluorimetric method
T4 sequence (Q9N6S8 whole entry): T1 sequence (whole entry)

Cruzipain = Cruzipain (Trypanosoma cruzi, UniProt P25779); test: Inhibition of Trypanosoma cruzi cruzain
[10] = biological target: Rhodesain (Trypanosoma brucei rhodesiense) (UniProt Q95PM0); test: Inhibition of Trypanosoma brucei rhodesiense rhodesain at 20 uM using Cbz-Phe-Arg-AMC as substrate measured for 30 mins by fluorescence method relative to control
Procathepsin L [11] = biological target: T2, Procathepsin L; test: Inhibition of human cathepsin L using Cbz-Phe-Arg-AMC as substrate
Target sequence in this assay (P07711 whole entry): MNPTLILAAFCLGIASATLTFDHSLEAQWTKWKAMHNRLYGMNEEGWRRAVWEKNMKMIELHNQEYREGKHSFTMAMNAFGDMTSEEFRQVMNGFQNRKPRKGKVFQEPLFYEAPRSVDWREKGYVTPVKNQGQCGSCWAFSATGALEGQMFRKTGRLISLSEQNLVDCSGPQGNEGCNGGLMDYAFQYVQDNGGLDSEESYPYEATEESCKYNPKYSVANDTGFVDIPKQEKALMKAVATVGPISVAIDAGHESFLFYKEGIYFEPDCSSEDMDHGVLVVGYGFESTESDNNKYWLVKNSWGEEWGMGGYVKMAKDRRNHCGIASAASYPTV

Cathepsin B [12] = biological target: T3, Cathepsin B; test: Inhibition of human cathepsin B using Cbz-Phe-Arg-AMC as substrate
Rhodesain = Rhodesain (Trypanosoma brucei rhodesiense, UniProt Q95PM0); test: Inhibition of Trypanosoma brucei rhodesiense rhodesain using Cbz-Phe-Arg-AMC as substrate measured for 30 mins by fluorescence method
[13] = biological target: Rhodesain (Trypanosoma brucei rhodesiense) (UniProt Q95PM0); test: Irreversible inhibition of Trypanosoma brucei rhodesiense rhodesain using Cbz-Phe-Arg-AMC as substrate pretreated for 30 mins followed by substrate addition and measured for 30 mins by dialysis method
[14] = biological target: T1, Falcipain 2 (Plasmodium falciparum); test: Irreversible inhibition of Plasmodium falciparum falcipain-2 using Cbz-Phe-Arg-AMC as substrate pretreated for 30 mins followed by substrate addition and measured for 30 mins by dialysis method
Plasmodium falciparum = test: Antimalarial activity against erythrocytic stage of synchronized Plasmodium falciparum Dd2 after 48 hrs by Picogreen dye based fluorescence assay; assay type: functional, organism-based; conditions: Dd2, 48 h
[15] = biological target: Cruzipain (Trypanosoma cruzi) (UniProt P25779); test: Irreversible inhibition of Trypanosoma cruzi cruzain pretreated for 30 mins followed by substrate addition and measured for 30 mins by dialysis method
[16] = Cytotoxicity against human HepG2 cells assessed as cell viability at 1 uM measured after 24 hrs by spectrophotometric method relative to control; assay type: cell-based; conditions: read-out: Activity
Trypanosoma cruzi = test: Antitrypanosomal activity against Trypanosoma cruzi Tulahuen strain C2C4 amastigote forms harboring LacZ infected in rat L6 cells after 96 hrs by CPRG/Nonidet reagent based photometric method; assay type: functional, organism-based; conditions: Tulahuen strain C2C4, L6, 96 h
[17] = tested on: Trypanosoma brucei rhodesiense; test: Antiprotozoal activity against patient derived Trypanosoma brucei rhodesiense STIB 900 bloodstream form after 70 hrs by Alamar Blue assay; assay type: functional, organism-based; conditions: STIB 900, 70 h
Leishmania donovani = test: Antileishmanial activity against Leishmania donovani MHOM/ET/67/L82 axenic amastigotes after 70 hrs by alamar blue staining based fluorescence assay; assay type: functional, organism-based; conditions: MHOM/ET/67/L82, 70 h

Chain of Rhodesain (Trypanosoma brucei rhodesiense) (Q95PM0 1-450): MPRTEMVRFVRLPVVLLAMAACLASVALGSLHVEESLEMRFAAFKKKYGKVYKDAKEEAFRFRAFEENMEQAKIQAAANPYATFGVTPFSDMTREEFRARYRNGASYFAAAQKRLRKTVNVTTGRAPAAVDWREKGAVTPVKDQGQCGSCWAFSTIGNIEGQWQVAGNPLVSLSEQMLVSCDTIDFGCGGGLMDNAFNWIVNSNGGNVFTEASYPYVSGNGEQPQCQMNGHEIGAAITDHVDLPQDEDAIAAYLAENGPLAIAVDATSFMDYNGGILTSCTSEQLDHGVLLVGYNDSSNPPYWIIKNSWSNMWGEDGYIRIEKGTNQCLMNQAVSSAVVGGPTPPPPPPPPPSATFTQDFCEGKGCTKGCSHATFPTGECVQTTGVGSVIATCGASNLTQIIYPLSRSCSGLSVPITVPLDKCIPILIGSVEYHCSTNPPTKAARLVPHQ
Chain of Rhodesain (Q95PM0 whole entry): as the sequence (Q95PM0 1-450) above
Chain of Cruzipain (P25779 whole entry): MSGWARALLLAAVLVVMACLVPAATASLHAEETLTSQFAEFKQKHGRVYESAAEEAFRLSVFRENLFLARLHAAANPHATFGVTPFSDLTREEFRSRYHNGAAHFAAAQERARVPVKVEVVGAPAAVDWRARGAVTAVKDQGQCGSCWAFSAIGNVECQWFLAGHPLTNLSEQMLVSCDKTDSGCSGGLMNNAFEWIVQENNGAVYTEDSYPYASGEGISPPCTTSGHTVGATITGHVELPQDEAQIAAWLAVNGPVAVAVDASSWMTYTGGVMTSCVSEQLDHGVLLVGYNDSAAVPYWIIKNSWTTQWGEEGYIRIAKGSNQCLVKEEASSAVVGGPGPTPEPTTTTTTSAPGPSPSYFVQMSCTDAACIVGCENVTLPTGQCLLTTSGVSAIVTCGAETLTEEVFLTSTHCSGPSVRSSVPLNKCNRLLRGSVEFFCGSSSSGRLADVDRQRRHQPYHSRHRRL
Chain of Cruzipain (Trypanosoma cruzi) (P25779 123-467 limits assumed): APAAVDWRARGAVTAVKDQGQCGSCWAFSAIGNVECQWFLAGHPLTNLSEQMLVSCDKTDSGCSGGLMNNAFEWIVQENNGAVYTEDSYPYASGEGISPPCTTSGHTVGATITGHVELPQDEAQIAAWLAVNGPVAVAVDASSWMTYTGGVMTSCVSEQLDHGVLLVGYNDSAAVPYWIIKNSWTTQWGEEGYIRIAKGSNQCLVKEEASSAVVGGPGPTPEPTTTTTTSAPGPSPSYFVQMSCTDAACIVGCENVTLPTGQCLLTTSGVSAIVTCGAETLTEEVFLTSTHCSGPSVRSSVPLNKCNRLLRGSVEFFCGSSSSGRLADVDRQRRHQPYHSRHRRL

SMILES | inhibition [2] | K [3] | K (Procathepsin L [4]) | K [5] | K (Cathepsin B [6]) | inhibition (Cathepsin B [7]) | inhibition [8] | inhibition (Procathepsin L [9]) | IC50 (Cruzipain) | inhibition [10] | IC50 (Procathepsin L [11]) | IC50 (Cathepsin B [12]) | IC50 (Rhodesain) | also measured
CCOC(=O)/C=C/C(=O)[C@H](C)NC(=O)[C@H](Cc1ccccc1)NC(=O)OCc1ccccc1 | 99% | 6500 M⁻¹ s⁻¹ | 197000 M⁻¹ s⁻¹ | 140000 M⁻¹ s⁻¹ | 47000 M⁻¹ s⁻¹ | 100% | 100% | 100% | 0.3 µM | 100% | 0.08 µM | – | – | K [1]: 28300 M⁻¹ s⁻¹; IC50 (Falcipain 2): 0.19 µM
CCOC(=O)/C=C/[C@H](O)[C@H](CCc1ccccc1)NC(=O)[C@H](Cc1ccccc1)NC(=O)OCc1ccccc1 | 22% | – | 77 M⁻¹ s⁻¹ | – | 14 M⁻¹ s⁻¹ | 35% | 37% | 58% | – | 32% | 47 µM | 52.6 µM | – | –
CCOC(=O)/C=C/[C@@H](O)[C@H](C)NC(=O)[C@H](Cc1ccccc1)NC(=O)OCc1ccccc1 | 41% | 11000 M⁻¹ s⁻¹ | 828 M⁻¹ s⁻¹ | – | – | 26% | 30% | 80% | – | 63% | – | – | 15.1 µM | K [1]: 2700 M⁻¹ s⁻¹; IC50 (Falcipain 2): 26.8 µM
CCOC(=O)/C=C/C(=O)[C@H](CCc1ccccc1)NC(=O)[C@H](Cc1ccccc1)NC(=O)N1CCOCC1 | – | 142000 M⁻¹ s⁻¹ | 28500 M⁻¹ s⁻¹ | 23400 M⁻¹ s⁻¹ | 97000 M⁻¹ s⁻¹ | 100% | 100% | 100% | 0.3 µM | 100% | 0.18 µM | 0.07 µM | 0.15 µM | inhibition [13]: Active; inhibition [14]: Active; IC50 (Plasmodium falciparum): 6.81 µM; inhibition [15]: Active; viability at 24 h, 1 µM [16]: 100%
CCOC(=O)/C=C/[C@H](O)[C@H](CCc1ccccc1)C(=O)N[C@@H](CC(C)C)C(=O)OC | 3% | – | – | – | – | 0% | – | 0% | – | 1% | – | – | – | –
CCOC(=O)/C=C/C(=O)[C@H](C)NC(=O)[C@H](CC(C)C)NC(=O)OCc1ccccc1 | 98% | 14200 M⁻¹ s⁻¹ | 9800 M⁻¹ s⁻¹ | 14400 M⁻¹ s⁻¹ | 85500 M⁻¹ s⁻¹ | 100% | 99% | 99% | – | 99% | 0.5 µM | – | – | K [1]: 12000 M⁻¹ s⁻¹; IC50 (Falcipain 2): 1.2 µM
CCOC(=O)/C=C/C(=O)[C@H](CCc1ccccc1)NC(=O)[C@H](CC(C)C)NC(=O)OCc1ccccc1 | 98% | 116000 M⁻¹ s⁻¹ | 29900 M⁻¹ s⁻¹ | 60800 M⁻¹ s⁻¹ | 42400 M⁻¹ s⁻¹ | 100% | 100% | 100% | 0.08 µM | 98% | 0.26 µM | – | – | K [1]: 6000 M⁻¹ s⁻¹; IC50 (Plasmodium falciparum): 1.61 µM; IC50 (Trypanosoma cruzi): 7.14 µM; IC50 (Falcipain 2): 0.58 µM; IC50 [17]: 2.32 µM; IC50 (Leishmania donovani): 0.09 µM; viability at 24 h, 1 µM [16]: 100%
CCOC(=O)/C=C/[C@H](O)[C@H](CCc1ccccc1)C(=O)N[C@@H](Cc1ccccc1)C(=O)OCc1ccccc1 | 5% | – | – | – | – | 25% | – | 0% | – | 6% | – | – | – | –
O=C(/C=C/[C@@H](O)[C@H](CCc1ccccc1)NC(=O)[C@H](Cc1ccccc1)NC(=O)OCc1ccccc1)NCc1ccccc1 | – | – | – | – | – | 9% | 41% | 17% | – | 1% | – | – | – | –
CCOC(=O)/C=C/C(=O)[C@@H](CC(C)C)NC(=O)[C@H](Cc1ccccc1)NC(=O)OCc1ccccc1 | – | 1.53e+06 M⁻¹ s⁻¹ | 704000 M⁻¹ s⁻¹ | 312000 M⁻¹ s⁻¹ | 117000 M⁻¹ s⁻¹ | 100% | 100% | 100% | 0.02 µM | 100% | 0.01 µM | 0.06 µM | 0.03 µM | –
CCOC(=O)/C=C/[C@@H](O)[C@H](CCc1ccccc1)NC(=O)[C@H](Cc1ccccc1)NC(=O)N1CCOCC1 | – | 36700 M⁻¹ s⁻¹ | 1900 M⁻¹ s⁻¹ | 3600 M⁻¹ s⁻¹ | 4190 to 4200 M⁻¹ s⁻¹ | 100% | 95% | 98% | – | 99% | – | – | – | –
CCOC(=O)/C=C/[C@@H](O)[C@H](CCc1ccccc1)NC(=O)[C@H](Cc1ccccc1)NC(=O)OCc1ccccc1 | 41% | 3200 to 3210 M⁻¹ s⁻¹ | 1100 M⁻¹ s⁻¹ | – | 772 to 800 M⁻¹ s⁻¹ | 36% | 18% | 57% | – | 63% | – | – | – | K [1]: 557 M⁻¹ s⁻¹; IC50 (Falcipain 2): 34.4 µM
CCOC(=O)/C=C/C(=O)[C@H](CC(C)C)NC(=O)[C@H](CC(C)C)NC(=O)N1CCOCC1 | – | 324000 M⁻¹ s⁻¹ | 52200 M⁻¹ s⁻¹ | 10600 M⁻¹ s⁻¹ | 49500 M⁻¹ s⁻¹ | 100% | 100% | 100% | 0.2 µM | 100% | 0.09 µM | 0.09 µM | 0.11 µM | –
CCOC(=O)/C=C/[C@H](O)[C@H](CCc1ccccc1)C(=O)N[C@@H](Cc1ccccc1)C(=O)OC | 9% | – | – | – | – | 0% | – | 0% | – | 4% | – | – | – | –
CCOC(=O)/C=C/[C@@H](O)[C@H](CCc1ccccc1)NC(=O)[C@H](CC(C)C)NC(=O)OCc1ccccc1 | 11% | – | – | – | – | 10% | 9% | 14% | – | 0% | – | – | – | –
CCOC(=O)/C=C/[C@H](O)[C@H](CCc1ccccc1)C(=O)N[C@@H](CC(C)C)C(=O)OCc1ccccc1 | 5% | – | – | – | – | 17% | – | 0% | – | 2% | – | – | – | –
CCOC(=O)/C=C/C(=O)[C@H](CCc1ccccc1)NC(=O)[C@H](CC(C)C)NC(=O)N1CCOCC1 | – | 120000 M⁻¹ s⁻¹ | 19600 M⁻¹ s⁻¹ | 5600 M⁻¹ s⁻¹ | 31400 M⁻¹ s⁻¹ | 100% | – | 100% | 0.34 µM | 100% | 0.21 µM | 0.14 µM | 0.14 µM | IC50 (Plasmodium falciparum): 17.7 µM; viability at 24 h, 1 µM [16]: 100%
O=C(O)/C=C/[C@@H](O)[C@H](CCc1ccccc1)NC(=O)[C@H](Cc1ccccc1)NC(=O)OCc1ccccc1 | 24% | – | 882 M⁻¹ s⁻¹ | – | – | 15% | 12% | 47% | – | 24% | – | – | – | K [1]: 29 M⁻¹ s⁻¹; IC50 (Falcipain 2): 75 µM
CCOC(=O)/C=C/C(=O)[C@H](CC(C)C)NC(=O)[C@H](Cc1ccccc1)NC(=O)OCc1ccccc1 | – | 1.61e+06 M⁻¹ s⁻¹ | 759000 M⁻¹ s⁻¹ | 517000 M⁻¹ s⁻¹ | 138000 M⁻¹ s⁻¹ | 100% | 100% | 100% | 0.02 µM | 100% | 0.01 µM | 0.05 µM | 0.02 µM | IC50 (Plasmodium falciparum): 14.9 µM; viability at 24 h, 1 µM [16]: 100%
CCOC(=O)/C=C/C(=O)[C@@H](CCc1ccccc1)NC(=O)[C@H](Cc1ccccc1)NC(=O)N1CCOCC1 | – | 62400 M⁻¹ s⁻¹ | – | 22000 M⁻¹ s⁻¹ | 108000 M⁻¹ s⁻¹ | 99% | 99% | 100% | 0.33 µM | 99% | > 2 µM | 0.08 µM | 0.15 µM | inhibition [13]: Active; inhibition [14]: Active; inhibition [15]: Active
O=C(Cn1ccnc1[N+](=O)[O-])NCc1ccccc1 [BENZNIDAZOLE] | – | – | – | – | – | – | – | – | – | – | – | – | – | IC50 (Trypanosoma cruzi): 0.5 µg/mL
